# Measured values published in patent US10653688B2, “6-(6-membered heteroaryl and aryl)isoquinolin-3-yl carboxamides and preparation and use thereof” (Samumed, LLC, priority 2017, dated 2020).
# Like-named read-outs stand apart in the source and are kept apart here.
# Legend:
# [1] = system: pT212Tau in Dyrk1a- and MAPT-overexpressing HEK293T cells; experiment: Tau phosphorylation at Threonine 212 (pT212Tau) sandwich ELISA in double transfected cells; conditions: Homo sapiens, HEK-293T, read-out: Thr212 EC50 (μM)
# Method: HEK293T cells (transfectable human embryonic kidney cells) were cultured in DMEM medium supplemented with 10% FBS and 1% penicillin/streptomycin.
# HEK293T cells were transiently transfected to overexpress Dyrk1a and microtubule-associated protein Tau (MAPT) genes. Specifically, Dyrk1a and MAPT expression vectors were obtained from OriGene (10 μg of each, catalog numbers SC314641 and RC216166, respectively). […] HEK293T cells were seeded at 1.0×10^7 cells in 10 mL per T-75 flask. […] One T-75 flask was designated as a no-vector negative control for pT212Tau signal.
# After 4-6 hours of incubation in transfection reagents, transiently double transfected HEK293T cells were dissociated by treatment with trypsin EDTA and seeded at 1.0×10^5 cells in 100 μL per well in 96-well plates. No-vector negative controls were seeded in separate 96-well plates to avoid the risk of the negative control cells picking up the overexpression during incubation.
# 96-well flat-bottom plates were coated with 100 μL per well anti-HT7 capture antibody (ThermoFisher, MN1000) diluted 1:300 in 1×PBS at 4° C. overnight, with shaking at 500 rpm.
# Cells were then lysed with 100 μL 1×RIPA buffer supplemented with phosphatase and protease inhibitors (each diluted to a final 1×). […] V-bottom plates were centrifuged at 4000 rpm, 4° C., for 15 minutes, and 100 μL of lysate supernatant from each well was directly tested for pT212Tau signal by sandwich ELISA.
# [2] = system: SW480 colon carcinoma cells; experiment: Cell viability assay (CellTiter-Glo); format: cell-based, human; conditions: Homo sapiens; for EC50: 96 h, four days, CellTiter-Glo; for inhibition at 10 µM: read-out: percent inhibition at 10 μM (given for EC50 >10 μM), 10 μM
# [3] = system: Wnt activity (SW480 colon carcinoma cells stably expressing the Sp5-Luc reporter gene); experiment: Wnt activity screening assay (Sp5-Luc reporter gene assay); format: cell-based, human; conditions: Homo sapiens; for EC50: 36 to 48 hours; for inhibition at 10 µM: read-out: percent inhibition at 10 μM (given for EC50 >10 μM), 10 μM
# Procedure, shortened: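 EC50 values come from a variable-slope four-parameter fit of luminescence normalized to DMSO-only wells. The read-out follows 36–48 h incubation at 37 °C, 5% CO2, in DMEM containing 1% fetal bovine serum. Cells are hygromycin-selected SW480 stably expressing firefly luciferase under a Wnt-responsive Sp5 promoter (eight TCF/LEF sites).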
# [4] = target: recombinant DYRK1A kinase (Homo sapiens (Human), UniProt Q13627); experiment: DYRK1A kinase assay (Ser/Thr 18 peptide Z-lyte, FRET)
# Method: Each compound was dissolved in DMSO as a 10 mM stock and used to prepare compound source plates.
# This is a non-radioactive assay using fluorescence resonance energy transfer (FRET) between coumarin and fluorescein to detect kinase activity which is represented as a ratio of coumarin emission/fluorescein emission.
# The mixture was allowed to incubate with the representative compounds for one hour at room temperature. All reactions were performed in duplicate. Unphosphorylated (“0% Control”) and phosphorylated (“100% control”) forms of Ser/Thr 18 served as control reactions. Additionally, an 11-point dose-response curve of Staurosporine (luM top) was run to serve as a positive compound control.
# After incubation, Development Reagent A was diluted in Development Buffer then added to the reaction and allowed to further incubate for one hour at room temperature.
# Dose-response curves were generated and inhibitory concentration (IC50) values were calculated using non-linear regression curve fit in the Dotmatics' Studies Software (Bishops Stortford, UK).
# [5] = system: LL29 cells (primary human fibroblasts derived from IPF patients), α-smooth muscle actin; experiment: Inhibition of fibrotic process: TGF-β1-treated primary human fibroblasts, αSMA staining; format: cell-based; conditions: Homo sapiens, Fibroblast; for EC50: 96 h, TGF-β1 20 ng/mL, 4 days, % cells positive for αSMA; for inhibition at 10 µM: read-out: percent inhibition at 10 μM (given for EC50 >10 μM), TGF-β1, αSMA, 10 μM;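 for all read-outs here: controls were TGF-β1-stimulated wells with DMSO vehicle as the positive reference and cells given DMSO alone as the negative reference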
# [6] = system: IL-6 in human peripheral blood mononuclear cells (huPBMCs); experiment: IL-6 inhibition in LPS-stimulated human peripheral blood mononuclear cells (HTRF); format: cell-based; conditions: Homo sapiens, PBMC; for EC50: LPS 50 ng/mL, 22 hours, IL-6 HTRF; for inhibition at 10 µM: read-out: percent inhibition at 10 μM (given for EC50 >10 μM), LPS, IL-6, 10 μM
# Procedure, shortened: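 Compound-treated huPBMCs (1×10e6 cells/mL, 1% FBS-RPMI) were stimulated after 2 h with LPS (50 ng/mL) for another 22 h at 37° C. An anti-IL-6 HTRF pair reported IL-6 as the 665/620 nm ratio; activity relative to DMSO, EC50 by 4-parameter Levenberg-Marquardt fitting, duplicates.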
# recombinant GSK3β kinase = recombinant GSK3β kinase (Homo sapiens (Human), UniProt P49841); experiment: GSK3β kinase assay (Ser/Thr 09 peptide Z-lyte, FRET); format: biochemical;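 note: FRET read-out as coumarin over fluorescein emission ratio, compounds incubated one hour at room temperature, IC50 from dose-response curve fit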
# recombinant GSK3β kinase, sequence (P49841 whole entry): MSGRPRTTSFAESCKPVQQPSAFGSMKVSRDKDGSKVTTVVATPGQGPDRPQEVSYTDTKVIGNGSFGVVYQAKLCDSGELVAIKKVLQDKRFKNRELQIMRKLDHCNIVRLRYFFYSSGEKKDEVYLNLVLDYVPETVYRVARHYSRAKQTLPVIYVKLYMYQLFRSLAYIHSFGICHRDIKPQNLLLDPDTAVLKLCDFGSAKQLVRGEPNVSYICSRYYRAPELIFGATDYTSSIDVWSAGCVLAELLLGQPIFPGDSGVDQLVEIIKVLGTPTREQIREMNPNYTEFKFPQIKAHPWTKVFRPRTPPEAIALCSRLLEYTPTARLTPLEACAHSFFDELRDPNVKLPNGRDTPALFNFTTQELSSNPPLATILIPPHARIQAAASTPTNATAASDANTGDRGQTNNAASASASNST
# [7] = system: secreted cytokines TNFα, IL-6 and KC-GRO in BV-2 cells (mouse microglial cells); experiment: Secreted cytokines in lipopolysaccharide-stimulated mouse glial cell line; format: cell-based; conditions: LPS 250 ng/mL 5 hours, table does not say which cytokine
# Method: Representative compounds were screened using the cell-based assay procedure for secreted cytokines in a Lipopolysaccharide-stimulated mouse glial cell line described below.
# BV-2 cells (mouse microglial cells) were cultured in 1:1 DMEM medium supplemented with 10% FBS, and 1% penicillin/streptomycin.
# BV-2 cells are plated at 35,000 cells/well in a volume of 100 μl for at least 4 hours before compounds are added. DMSO-resuspended compounds were first dispensed in a 96-well plate and serial diluted from 10 μM to 4.6 nM final concentration in medium. Compounds were added to cells overnight. 250 ng/mL of lipopolysaccharide (Escherichia coli O111:B4, SIGMA) was added for 5 hours. Supernatant is removed and saved for further cytokine detection. The original plates with seeded cells were tested for cytotoxicity by measure of adenosine triphosphate (ATP) release by adding CellTiter-Glo® diluted 1:4 in distilled water (G7573, Promega) and transferring lysed cells to a completely black 96-well plate to be read with the Cytation3. Supernatant was then diluted 1:2 with a diluent from V-PLEX cytokine Kit and directly tested for the secreted cytokines TNFα, IL-6 and KC-GRO using electrochemiluminescence (Meso Scale Discovery). The standard curve for each cytokine was used to convert the electrochemiluminescent signal into pg of protein per mL. The signal was used to plot, draw the curve fitting, and determine each compounds EC50 in Prism (GraphPad).
# [8] = DYRK1A kinase, head says EC50, method says IC50, ATP 30 μM
# [9] = GSK3β kinase, head says EC50, method says IC50, ATP 46 μM
Compound,EC50 [1] [µM],EC50 [2] [nM],inhibition at 10 µM [2] [%],EC50 [3] [nM],inhibition at 10 µM [3] [%],EC50 [4] [nM],EC50 [5] [nM],EC50 [6] [nM],inhibition at 10 µM [6] [%],EC50 (recombinant GSK3β kinase) [nM],EC50 [7] [nM],"EC50 [4, 8] [nM]",EC50 (recombinant GSK3β kinase; [9]) [nM],inhibition at 10 µM [5] [%]
"O=C(CN1CCOCC1)Nc1cc2cc(-c3cncc(F)c3)ccc2cn1 [Compound 22, N-(6-(5-Fluoropyridin-3-yl)isoquinolin-3-yl)-2-morpholinoacetamide]",0.253,> 10000,17.2,> 10000,10.9,70,2060,> 10000,22.9,1770,1320,,,
"O=C(Nc1cc2cc(-c3cncc(C(F)F)c3)ccc2cn1)c1cccc(C2CCNCC2)c1 [Compound 26, N-(6-(5-(Difluoromethyl)pyridin-3-yl)isoquinolin-3-yl)-3-(piperidin-4-yl)benzamide]",1.4,1860,,1550,,,1330,1320,,,479,29,> 10000,
"CN1CCCC(C(=O)Nc2cc3cc(-c4cnccn4)ccc3cn2)CC1 (centres unmarked) [Compound 80, 1-Methyl-N-(6-(pyrazin-2-yl)isoquinolin-3-yl)azepane-4-carboxamide]",1.4,> 10000,32,> 10000,9.6,,9130,> 10000,4.9,,,27,1560,
"CN1CCN(c2cc(C(=O)Nc3cc4cc(-c5cncc6[nH]ccc56)ccc4cn3)ccn2)CC1 [Compound 131, N-(6-(1H-Pyrrolo[2,3-c]pyridin-4-yl)isoquinolin-3-yl)-2-(4-methylpiperazin-1-yl)isonicotinamide]",,285,,235,,,604,2900,,,,3,> 10000,
"Cc1cc2cc(-c3ccc4cnc(NC(=O)c5ccnc(N6CCN(C)CC6)c5)cc4c3)cnc2[nH]1 [Compound 133, N-(6-(2-Methyl-1H-pyrrolo[2,3-b]pyridin-5-yl)isoquinolin-3-yl)-2-(4-methylpiperazin-1-yl)isonicotinamide]",,3740,,4080,,,4030,3280,,,,57,> 10000,
"Cc1c[nH]c2ncc(-c3ccc4cnc(NC(=O)c5ccnc(N6CCN(C)CC6)c5)cc4c3)cc12 [Compound 134, N-(6-(3-Methyl-1H-pyrrolo[2,3-b]pyridin-5-yl)isoquinolin-3-yl)-2-(4-methylpiperazin-1-yl)isonicotinamide]",,3930,,6210,,,2750,8810,,,,54,> 10000,
"CN1CCN(c2cc(C(=O)Nc3cc4cc(-c5cnc6[nH]ccc6n5)ccc4cn3)ccn2)CC1 [Compound 136, N-(6-(5H-Pyrrolo[2,3-b]pyrazin-2-yl)isoquinolin-3-yl)-2-(4-methylpiperazin-1-yl)isonicotinamide]",,1240,,1730,,,933,9060,,,,38,> 10000,
"CN1CCN(c2cc(C(=O)Nc3cc4cc(-c5cnc6cc[nH]c6n5)ccc4cn3)ccn2)CC1 [Compound 137, N-(6-(5H-Pyrrolo[2,3-b]pyrazin-3-yl)isoquinolin-3-yl)-2-(4-methylpiperazin-1-yl)isonicotinamide]",,1220,,> 10000,19.8,,> 10000,> 10000,3.9,,,27,> 10000,34.2
"CC(C)n1cc(C(=O)Nc2cc3cc(-c4cncc(NC5CCNCC5)n4)ccc3cn2)cn1 [Compound 138, 1-Isopropyl-N-(6-(6-(piperidin-4-ylamino)pyrazin-2-yl)isoquinolin-3-yl)-1H-pyrazole-4-carboxamide]",,71,,39,,,78,2760,,,,2,> 10000,
"CC(C)n1cc(C(=O)Nc2cc3cc(-c4cncc(NC5CCN(C)CC5)n4)ccc3cn2)cn1 [Compound 139, 1-Isopropyl-N-(6-(6-((1-methylpiperidin-4-yl)amino)pyrazin-2-yl)isoquinolin-3-yl)-1H-pyrazole-4-carboxamide]",,52,,32,,,148,361,,,,2,> 10000,
"O=C(Nc1cc2cc(-c3cccnc3)ccc2cn1)c1coc(C2CCNCC2)n1 [Compound 140, 2-(Piperidin-4-yl)-N-(6-(pyridin-3-yl)isoquinolin-3-yl)oxazole-4-carboxamide]",,724,,> 10000,6.6,,1680,3400,,,,1050,> 10000,
"O=C(Nc1cc2cc(-c3cncc(F)c3)ccc2cn1)c1coc(C2CCNCC2)n1 [Compound 141, N-(6-(5-Fluoropyridin-3-yl)isoquinolin-3-yl)-2-(piperidin-4-yl)oxazole-4-carboxamide]",,5880,,4010,,,1510,9000,,,,306,> 10000,
"CN1CCC(c2nc(C(=O)Nc3cc4cc(-c5cccnc5)ccc4cn3)co2)CC1 [Compound 142, 2-(1-Methylpiperidin-4-yl)-N-(6-(pyridin-3-yl)isoquinolin-3-yl)oxazole-4-carboxamide]",,> 10000,16.9,3500,,,> 10000,> 10000,7.8,,,689,> 10000,8.8
"CN1CCC(c2nc(C(=O)Nc3cc4cc(-c5cncc(F)c5)ccc4cn3)co2)CC1 [Compound 143, N-(6-(5-Fluoropyridin-3-yl)isoquinolin-3-yl)-2-(1-methylpiperidin-4-yl) oxazole-4-carboxamide]",,> 10000,8,> 10000,0.8,,2440,> 10000,8.2,,,6800,> 10000,
"Nc1cncc(-c2ccc3cnc(NC(=O)c4coc(C5CCNCC5)n4)cc3c2)c1 [Compound 148, N-(6-(5-Aminopyridin-3-yl)isoquinolin-3-yl)-2-(piperidin-4-yl)oxazole-4-carboxamide]",,441,,266,,,1190,1780,,,,12,> 10000,
"CC(C)N1CCC(c2nc(C(=O)Nc3cc4cc(-c5cccnc5)ccc4cn3)co2)CC1 [Compound 149, 2-(1-Isopropylpiperidin-4-yl)-N-(6-(pyridin-3-yl)isoquinolin-3-yl)oxazole-4-carboxamide]",,> 10000,39,7840,,,3400,3780,,,,102,> 10000,
"CC(C)N1CCC(c2nc(C(=O)Nc3cc4cc(-c5cncc(F)c5)ccc4cn3)co2)CC1 [Compound 150, N-(6-(5-Fluoropyridin-3-yl)isoquinolin-3-yl)-2-(1-isopropylpiperidin-4-yl) oxazole-4-carboxamide]",,> 10000,10.9,> 10000,15.2,1630,> 10000,> 10000,10.7,> 10000,,,,42
